Data: patent publication US9376442B2, “Methylpyrrolopyrimidinecarboxamides” (Takeda GmbH, priority 2009, dated 2016)

biological target: T1, PDE5A1 (Homo sapiens, UniProt O76074); test: Inhibition of type 5 phosphodiesterase (PDE5) activity, modified SPA test with human platelet lysate; type: biochemical; details: 0.5 μM cGMP, read-out: PDE5A1 inhibitory values [measured as −log IC50 (mol/l)] (converted)
T1 construct: from tissue; host or cells: human platelets from fresh donor blood (10,000 x g supernatant of sonicated lysate)
How it was run: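 Enzyme source is lysate from human platelets (10,000 g supernatant). Compound preincubated 5 min at 37° C in Tris pH 7.4 containing 1 μM motapizone and 10 nM of a PDE2 inhibitor. Reaction started with 0.5 μM cGMP ([3H] tracer) and run 15 min; SPA read-out, IC50 by non-linear regression.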

| IC50 [nM] | Structure (SMILES) |
| --- | --- |
| < 1 | Cc1[nH]c2c(-c3c(OCC4CC4)ccc4c3OCO4)ncnc2c1C(=O)NC1CCN(C(=O)[C@H](C)O)CC1 [Example F2, 4-[5-(Cyclopropylmethoxy)-1,3-benzodioxol-4-yl]-N-{1-[(2S)-2-hydroxypropanoyl]piperidin-4-yl}-6-methyl-5H-pyrrolo[3,2-d]pyrimidine-7-carboxamide] |
| < 1 | COc1ccc(OCC2CC2)c(-c2ncnc3c(C(=O)N[C@@H]4CCN(C(=O)[C@H](C)O)C4)c(C)[nH]c23)c1 [Example F48, 4-[2-(cyclopropylmethoxy)-5-methoxyphenyl]-N-{(3R)-1-[(2S)-2-hydroxypropanoyl]pyrrolidin-3-yl}-6-methyl-5H-pyrrolo[3,2-d]pyrimidine-7-carboxamide] |
| < 1 | Cc1cc(-c2ncnc3c(C(=O)N[C@H]4CC[C@@H](NC(=O)[C@H](C)O)CC4)c(C)[nH]c23)c(OCC2CC2)cc1F [Example F80, 4-[2-(Cyclopropylmethoxy)-4-fluoro-5-methylphenyl]-N-(cis-4-{[(2S)-2-hydroxypropanoyl]amino}cyclohexyl)-6-methyl-5H-pyrrolo[3,2-d]pyrimidine-7-carboxamide] |
| < 1 | COc1cc(-c2ncnc3c(C(=O)N[C@H]4CC[C@H](NC(=O)CO)CC4)c(C)[nH]c23)c(OCC2CC2)cc1F [Example F67, 4-[2-(Cyclopropylmethoxy)-4-fluoro-5-methoxyphenyl]-N-[trans-4-(glycoloylamino)cyclohexyl]-6-methyl-5H-pyrrolo[3,2-d]pyrimidine-7-carboxamide] |
| 1 to 10 | Cc1[nH]c2c(-c3ccc(F)cc3OCC3CC3)ncnc2c1C(=O)N[C@H]1CCN(C(=O)CO)C[C@@H]1O (relative stereo) [Example F21, 4-[2-(Cyclopropylmethoxy)-4-fluorophenyl]-N-[(3S*,4S*)-3-hydroxy-1-(hydroxyacetyl)piperidin-4-yl]-6-methyl-5H-pyrrolo[3,2-d]pyrimidine-7-carboxamide] |
| < 1 | COc1cc(OCC2CC2)c(-c2ncnc3c(C(=O)N[C@H]4CC[C@@H](NC(=O)CO)CC4)c(C)[nH]c23)cc1F [Example F87, 4-[2-(Cyclopropylmethoxy)-5-fluoro-4-methoxyphenyl]-N-[cis-4-(glycoloylamino)cyclohexyl]-6-methyl-5H-pyrrolo[3,2-d]pyrimidine-7-carboxamide] |
| 1 to 10 | Cc1[nH]c2c(-c3ccc(F)cc3OCC3CC3)ncnc2c1C(=O)N[C@@H]1CN(C(=O)CO)C[C@H]1O (relative stereo) [Example F19, 4-[2-(Cyclopropylmethoxy)-4-fluorophenyl]-N-[(3R*,4R*)-4-hydroxy-1-(hydroxyacetyl)pyrrolidin-3-yl]-6-methyl-5H-pyrrolo[3,2-d]pyrimidine-7-carboxamide] |

The remaining lines, values behind:

| Structure (SMILES) | IC50 [nM] |
| --- | --- |
| COCC(=O)N1C[C@@H](O)[C@H](NC(=O)c2c(C)[nH]c3c(-c4cc(F)c(OC)cc4OCC4CC4)ncnc23)C1 (relative stereo) [Example E191, 4-[2-(Cyclopropylmethoxy)-5-fluoro-4-methoxyphenyl]-N-[(3R*,4R*)-4-hydroxy-1-(methoxyacetyl)pyrrolidin-3-yl]-6-methyl-5H-pyrrolo[3,2-d]pyrimidine-7-carboxamide] | < 1 |
| COCC(=O)N[C@H]1CC[C@H](NC(=O)c2c(C)[nH]c3c(-c4cc(C)c(F)cc4OCC4CC4)ncnc23)CC1 [Example E124, 4-[2-(Cyclopropylmethoxy)-4-fluoro-5-methylphenyl]-N-{trans-4-[(methoxyacetyl)amino]cyclohexyl}-6-methyl-5H-pyrrolo[3,2-d]pyrimidine-7-carboxamide] | < 1 |
| CCC(=O)N1C[C@@H](O)[C@H](NC(=O)c2c(C)[nH]c3c(-c4cc(F)c(OC)cc4OCC4CC4)ncnc23)C1 (relative stereo) [Example E190, 4-[2-(Cyclopropylmethoxy)-5-fluoro-4-methoxyphenyl]-N-[(3R*,4R*)-4-hydroxy-1-propionylpyrrolidin-3-yl]-6-methyl-5H-pyrrolo[3,2-d]pyrimidine-7-carboxamide] | < 1 |
| CC(=O)N[C@H]1CC[C@@H](NC(=O)c2c(C)[nH]c3c(-c4cc(C)c(F)cc4OCC4CC4)ncnc23)CC1 [Example E125, N-[cis-4-(Acetylamino)cyclohexyl]-4-[2-(cyclopropylmethoxy)-4-fluoro-5-methylphenyl]-6-methyl-5H-pyrrolo[3,2-d]pyrimidine-7-carboxamide] | < 1 |
| COc1cc(OCC2CC2)c(-c2ncnc3c(C(=O)N[C@@H]4CN(C(C)=O)C[C@H]4O)c(C)[nH]c23)cc1F (relative stereo) [Example E189, N-[(3R*,4R*)-1-Acetyl-4-hydroxypyrrolidin-3-yl]-4-[2-(cyclopropylmethoxy)-5-fluoro-4-methoxyphenyl]-6-methyl-5H-pyrrolo[3,2-d]pyrimidine-7-carboxamide] | < 1 |
| COc1cc(OCC2CC2)c(-c2ncnc3c(C(=O)N[C@H]4CC[C@H](NC(C)=O)CC4)c(C)[nH]c23)cc1F [Example E135, N-(trans-4-Acetamidocyclohexyl)-4-[2-(cyclopropylmethoxy)-5-fluoro-4-methoxyphenyl]-6-methyl-5H-pyrrolo[3,2-d]pyrimidine-7-carboxamide] | < 1 |
| CC(=O)N[C@H]1CC[C@H](NC(=O)c2c(C)[nH]c3c(-c4ccc(F)cc4OCC4CC4)ncnc23)CC1 [Example E22, N-(trans-4-acetamidocyclohexyl)-4-[2-(cyclopropylmethoxy)-4-fluorophenyl]-6-methyl-5H-pyrrolo[3,2-d]pyrimidine-7-carboxamide] | < 1 |
| CCC(=O)N1CC[C@@H](NC(=O)c2c(C)[nH]c3c(-c4cc(F)c(OC)cc4OCC4CC4)ncnc23)[C@H](O)C1 (relative stereo) [Example E143, 4-[2-(Cyclopropylmethoxy)-5-fluoro-4-methoxyphenyl]-N-[(3R*,4R*)-3-hydroxy-1-propanoylpiperidin-4-yl]-6-methyl-5H-pyrrolo[3,2-d]pyrimidine-7-carboxamide] | < 1 |
| COCC(=O)N1CC[C@@H](NC(=O)c2c(C)[nH]c3c(-c4ccc(OC)cc4OCC4CC4)ncnc23)C1 [Example E62, 4-[2-(Cyclopropylmethoxy)-4-methoxyphenyl]-N-[(3R)-1-(methoxyacetyl)pyrrolidin-3-yl]-6-methyl-5H-pyrrolo[3,2-d]pyrimidine-7-carboxamide] | < 1 |
| CC(=O)N1CC[C@@H](NC(=O)c2c(C)[nH]c3c(-c4ccc(F)cc4OCC4CC4)ncnc23)C1 [Example E28, N-[(3R)-1-acetylpyrrolidin-3-yl]-4-[2-(cyclopropylmethoxy)-4-fluorophenyl]-6-methyl-5H-pyrrolo[3,2-d]pyrimidine-7-carboxamide] | 1 to 10 |
| CCC(=O)N1CCC(NC(=O)c2c(C)[nH]c3c(-c4c(OCC5CC5)ccc5c4OCO5)ncnc23)CC1 [Example E2, 4-[5-(Cyclopropylmethoxy)-1,3-benzodioxol-4-yl]-6-methyl-N-(1-propionylpiperidin-4-yl)-5H-pyrrolo[3,2-d]pyrimidine-7-carboxamide] | < 1 |
| COc1cc(OCC2CC2)c(-c2ncnc3c(C(=O)N[C@@H]4CCN(C(C)=O)C[C@H]4O)c(C)[nH]c23)cc1F (relative stereo) [Example E142, N-[(3R*,4R*)-1-Acetyl-3-hydroxypiperidin-4-yl]-4-[2-(cyclopropylmethoxy)-5-fluoro-4-methoxyphenyl]-6-methyl-5H-pyrrolo[3,2-d]pyrimidine-7-carboxamide] | < 1 |
| CC(=O)N1CCC(NC(=O)c2c(C)[nH]c3c(-c4ccc(F)cc4OCC4CC4)ncnc23)CC1 [Example E19, N-(1-acetylpiperidin-4-yl)-4-[2-(cyclopropylmethoxy)-4-fluorophenyl]-6-methyl-5H-pyrrolo[3,2-d]pyrimidine-7-carboxamide] | < 1 |
| COCC(=O)N1CC[C@@H](NC(=O)c2c(C)[nH]c3c(-c4c(OCC5CC5)ccc5c4OCO5)ncnc23)C1 [Example E15, 4-[5-(Cyclopropylmethoxy)-1,3-benzodioxol-4-yl]-N-[(3R)-1-(methoxyacetyl)pyrrolidin-3-yl]-6-methyl-5H-pyrrolo[3,2-d]pyrimidine-7-carboxamide] | < 1 |
| CCC(=O)N[C@H]1CC[C@@H](NC(=O)c2c(C)[nH]c3c(-c4c(OCC5CC5)ccc5c4OCO5)ncnc23)CC1 [Example E10, 4-[5-(Cyclopropylmethoxy)-1,3-benzodioxol-4-yl]-6-methyl-N-[cis-4-(propionylamino)cyclohexyl]-5H-pyrrolo[3,2-d]pyrimidine-7-carboxamide] | < 1 |
| COCC(=O)N1CCC(NC(=O)c2c(C)[nH]c3c(-c4cc(OC)c(F)cc4OCC4CC4)nc(C)nc23)CC1 [Example E175, 4-[2-(Cyclopropylmethoxy)-4-fluoro-5-methoxyphenyl]-N-[1-(methoxyacetyl)piperidin-4-yl]-2,6-dimethyl-5H-pyrrolo[3,2-d]pyrimidine-7-carboxamide] | < 1 |
| COc1cc(-c2ncnc3c(C(=O)N[C@@H]4CCN(C(C)=O)C4)c(C)[nH]c23)c(OCC2CC2)cc1F [Example E179, N-[(3R)-1-Acetylpyrrolidin-3-yl]-4-[2-(cyclopropylmethoxy)-4-fluoro-5-methoxyphenyl]-6-methyl-5H-pyrrolo[3,2-d]pyrimidine-7-carboxamide] | < 1 |
| CCC(=O)N1CC[C@@H](NC(=O)c2c(C)[nH]c3c(-c4cc(OC)c(F)cc4OCC4CC4)ncnc23)C1 [Example E180, 4-[2-(Cyclopropylmethoxy)-4-fluoro-5-methoxyphenyl]-6-methyl-N-[(3R)-1-propionylpyrrolidin-3-yl]-5H-pyrrolo[3,2-d]pyrimidine-7-carboxamide] | < 1 |
| CCC(=O)N[C@H]1CC[C@H](NC(=O)c2c(C)[nH]c3c(-c4cc(C(C)=O)ccc4OCC4CC4)ncnc23)CC1 [Example E167, 4-[5-Acetyl-2-(cyclopropylmethoxy)phenyl]-6-methyl-N-[trans-4-(propanoylamino)cyclohexyl]-5H-pyrrolo[3,2-d]pyrimidine-7-carboxamide] | < 1 |
